Consider one compound from patent US20230023092A1, “TREATMENT OF DEPRESSION AND OTHER VARIOUS DISORDERS WITH PSILOCYBIN” (COMPASS […], priority 2019, published 2023).

The subject of experiment [1] is healthy subjects. Nature of the experiment: Reading the Mind in the Eyes Test (RMET). Format: in vivo, human. The text has this:
In some embodiments, Reading the Mind in the Eyes Test (RMET) is utilized to evaluate the safety and/or efficacy of psilocybin. The RMET has 36 items, in which subjects are presented with a photograph of the eyes region of the face and must choose 1 of 4 adjectives or phrases to describe the mental state of the person pictured. A definition handout is provided at the beginning of the task and a practice item precedes the first trial.
The Pictorial Empathy Test (PET), Reading the Mind in the Eyes Test (RMET), Scale of Social Responsibility (SSR), Social Value Orientation (SVO), and Toronto Empathy Questionnaire (TEQ) were performed. Table 20 summarizes the results of the mixed model for repeated measures (MMRM) analysis for each of the aforementioned social cognition panel scales measured on Day 7 and Day 84 after study drug administration.

Experiment [2] relates to healthy subjects. Nature of the experiment: CANTAB Paired Associates Learning (PALTEA). The format is in vivo, human. The note with it: Day 28. The text has this: In some embodiments, the Paired Associates Learning (PAL) test is utilized to evaluate safety and/or efficacy of psilocybin. The PAL task is a measure of visuo-spatial memory in which study subjects are required to remember locations at which visual stimuli are located. […] One or more of them will contain a pattern. […] If the subject makes an error, the boxes are opened in sequence again to remind the subject of the locations of the patterns. Increased difficulty levels can be used to test high-functioning, healthy individuals. The primary metric for this test is the number of errors made. This test takes approximately 8 min to complete. […]
The following list of outcome measures are non-exhaustive. • a. The short-term change from Baseline (Day −1 [Visit 2]) to Day 7 (Visit 5) in cognitive measures of attention, spatial and working memory and executive function was measured by a composite score of the CANTAB Panel (Spatial Working Memory [SWM], Rapid Visual Information Processing [RVP], Paired Associates Learning [PAL]). • b. The short-term change from Baseline (Day −1 [Visit 2]) to Day 7 (Visit 5) in Social Cognition Panel scales (Pictorial Empathy Test [PET], Reading the Mind in the Eyes Test [RMET], Toronto Empathy Questionnaire [TEQ], Social Value Orientation [SVO], Scale of Social Responsibility [SSR]). • c. […]

`CN(C)CCc1c[nH]c2cccc(OP(=O)(O)O)c12` [Psilocybin, psilocybin]: the “RMET change from baseline (LS mean)” value in the experiment with healthy subjects [1] (Day 7, psilocybin 10 mg) came out at 0.4; in the experiment with healthy subjects [1] (Day 7, psilocybin 25 mg), 0.4; with healthy subjects [1] (Day 84, psilocybin 10 mg) it was 0.1; in the experiment on healthy subjects [1] (Day 84, psilocybin 25 mg) it was 0.4. The “RMET change from baseline, LS mean difference” value in the experiment on healthy subjects [1] (Day 7, psilocybin 10 mg - placebo) came to 0.1; in the experiment on healthy subjects [1] (Day 7, psilocybin 25 mg - 10 mg), 0.0; in the experiment on healthy subjects [1] (Day 7, psilocybin 25 mg - placebo) it was 0.2; in the experiment with healthy subjects [1] (Day 84, psilocybin 10 mg - placebo), 0.2; with healthy subjects [1] (Day 84, psilocybin 25 mg - 10 mg) it was 0.3; in the experiment with healthy subjects [1] (Day 84, psilocybin 25 mg - placebo), 0.5. The “PALTEA improvement compared to placebo (LS mean difference from placebo)” value in the experiment with healthy subjects [2] (10 mg) and in the experiment with healthy subjects [2] (25 mg) was ~2 point throughout.
